Measured values: US20250051330A1, “HETEROCYCLIC COMPOUND HAVING ANTI-TUMOR ACTIVITY AND USE THEREOF” (CSPC Zhongqi Pharmaceutical Technology (Shijiazhuang) Co., …, priority 2021, published 2025)
Where two headings read alike, the source gives them in different places.

Tests used:
[1] = biological target: T1, K-Ras^G12D and hSOS1 (Homo sapiens, UniProt Q07889); experiment: K-Ras G12D and hSOS1 binding assay (HTRF); conditions: inhibition of binding of K-Ras G12D to hSOS1, HTRF; read-out: Activity by IC50 (nM), SOS1 inhibitory activity
T1 construct: variant: G12D
Protocol: 1. K-Ras^G12D and hSOS1 Binding Assay
This assay could be used to examine the potency of the compounds to inhibit the protein-protein interaction between SOS1 and KRAS G12D. The binding of anti-GSK-Europium (FRET donor)-conjugated GST-KRas^G12D to anti-6His-XL665-conjugated His-tagged hSOS1 ([…]) was detected by homogeneous time-resolved fluorescence (HTRF), and the inhibitory effects of the compounds on the binding of K-Ras^G12D to hSOS1 were determined.
• Buffer (5 mM HEPES pH 7.4, 150 mM NaCl, 10 mM EDTA, 1 mM DTT, 0.05% BAS pH 7.0, 0.0025% 1gepal, and 100 mM KF); • GST-tagged hK-RasG12D (produced in-house); • His-tagged hSOS1 (produced in-house);
• 10 nM (final concentration) GST-hK-RasG12D and 2 nM (final concentration) anti-GSK-Europium in assay buffer were mixed, and set aside at room temperature.
• 20 nM (final concentration) His-tagged hSOS1 and 10 nM (final concentration) anti-6His-XL665 in assay buffer were mixed, and set aside at room temperature.
The test compound was dissolved in DMSO at a concentration of 100 times the assay concentration. 50 nL of the solution of compound was pipetted by Hummingbird liquid handler or Echo acoustic system to a black microassay plate.
All the experimental steps were conducted at 20° C. In the experiment, 2.5 μL of the liquid mixture of Ras was added to all wells of the assay plate using a Multidrop dispenser. After pre-incubation for 2 min, 2.5 μL of the liquid mixture of SOS was added to all the test wells other than the marginal wells, and 2.5 μL of the […], as a control, was added to the marginal wells. After incubation for 60 min, the assay plate passed through the HTRF module of Pheraster (excitation light: 337 nm, emission light 1: 620 nm, emission light 2: 665 nm).
The IC50 values were calculated and analyzed using a four-parameter logistic regression model.

[2] = system: NCI-H358 cells; experiment: 3D cell proliferation inhibition assay (CellTiter-Glo 3D); format: cell-based; conditions: Homo sapiens, read-out: Activity by IC50 (nM), inhibitory activity against NCI-H358 cell proliferation
Description: The cell proliferation inhibition assay was used to determine the abilities of compounds to inhibit the proliferation and growth of SOS1-mediated tumor cells at the in vitro 3D cellular level. The CellTiter-Glo® 3D Cell Viability Assay was employed.
• NCI-H358: KRAS G12C-mutated non-small cell lung cancer (NSCLC); • CellTiter-Glo® 3D Cell Viability Assay, Promega, G9683; • RPMI 1640 medium, Gibco, A10491-01; • FBS, Gibco, 10099141C.
• Day 1: NCI-H358 cells were passaged into a T75 cell culture flask. • Day 3: the medium was removed; the cells were rinsed once with DPBS, and digested at room temperature or at 37° C. using 2 mL of TrypLE™ Express Enzyme until the cells were detached; the resultant was added with 5 mL of fresh medium, and centrifuged at 1000 rpm for 5 min; the supernatant was discarded, and 5 mL of fresh medium was added to resuspend the cells; the cells were counted and then seeded at 40 μL/well in a 3D cell culture plate (Echo Qualified 384-Well Polypropylene Microplate 2.0, Clear, Flat Bottom).
• Day 1: the test compound was dissolved in DMSO to prepare a 10 mM stock solution; after a 1000-fold dilution with DMSO, the test compound solution was subjected to ten 3-fold serial dilutions starting from a concentration of 10 μM; 200 nL of the compound solution was added to the culture plate. • Day 8: CTG 3D reagent was added at 40 μL/well, and the signal was detected using Envision.
The IC50 values of the compounds were fitted using the Graphpad Prism 8 nonlinear regression equation.
[formula] • X: Log of cpd concentration; • Y: Percent inhibition (% inh).

[3] = 192 h, NCI-H358 (KRAS G12C-mutated NSCLC), 3D culture, CTG 3D read on Day 8

T1 sequence (Q07889 whole entry, looked up, stated change not applied): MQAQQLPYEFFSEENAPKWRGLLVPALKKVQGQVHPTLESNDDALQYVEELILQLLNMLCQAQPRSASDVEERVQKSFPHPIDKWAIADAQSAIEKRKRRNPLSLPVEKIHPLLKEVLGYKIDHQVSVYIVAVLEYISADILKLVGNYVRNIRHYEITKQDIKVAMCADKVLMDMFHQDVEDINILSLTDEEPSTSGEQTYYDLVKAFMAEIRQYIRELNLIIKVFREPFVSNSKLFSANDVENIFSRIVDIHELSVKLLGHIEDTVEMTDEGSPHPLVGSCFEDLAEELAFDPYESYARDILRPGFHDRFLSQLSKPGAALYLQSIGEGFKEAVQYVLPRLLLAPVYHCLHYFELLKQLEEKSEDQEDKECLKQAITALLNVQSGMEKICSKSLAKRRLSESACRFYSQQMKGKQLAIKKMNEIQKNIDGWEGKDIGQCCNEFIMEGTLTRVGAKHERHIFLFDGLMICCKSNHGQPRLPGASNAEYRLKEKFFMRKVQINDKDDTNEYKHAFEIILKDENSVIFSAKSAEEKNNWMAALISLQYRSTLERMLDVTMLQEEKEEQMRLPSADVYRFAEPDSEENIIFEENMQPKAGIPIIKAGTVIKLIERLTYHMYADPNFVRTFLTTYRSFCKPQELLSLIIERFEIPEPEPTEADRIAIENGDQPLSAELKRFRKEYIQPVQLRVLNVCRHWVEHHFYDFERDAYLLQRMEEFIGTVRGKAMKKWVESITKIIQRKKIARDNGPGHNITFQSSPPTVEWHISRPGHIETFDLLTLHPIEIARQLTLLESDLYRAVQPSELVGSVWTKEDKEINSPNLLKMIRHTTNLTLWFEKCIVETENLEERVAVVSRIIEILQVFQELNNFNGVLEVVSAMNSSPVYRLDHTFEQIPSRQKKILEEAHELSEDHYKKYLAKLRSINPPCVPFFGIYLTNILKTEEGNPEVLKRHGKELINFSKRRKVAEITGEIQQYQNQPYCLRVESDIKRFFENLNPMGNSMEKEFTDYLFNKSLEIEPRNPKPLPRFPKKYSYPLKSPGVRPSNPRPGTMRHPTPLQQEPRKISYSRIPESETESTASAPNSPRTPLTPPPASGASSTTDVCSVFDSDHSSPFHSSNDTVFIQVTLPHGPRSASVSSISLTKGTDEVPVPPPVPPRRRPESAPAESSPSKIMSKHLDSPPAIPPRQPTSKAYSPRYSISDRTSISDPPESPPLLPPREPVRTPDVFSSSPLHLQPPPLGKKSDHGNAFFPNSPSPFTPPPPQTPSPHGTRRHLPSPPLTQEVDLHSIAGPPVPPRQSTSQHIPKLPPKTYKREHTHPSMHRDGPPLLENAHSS

| IC50 [1] | IC50 [2, 3] | SMILES | IC50 ([2]; NCI-H358, 192 h) |
| --- | --- | --- | --- |
| 10 to 50 nM | 100 to 500 nM | CC(=O)N1CC=C(c2cc3c(N[C@H](C)c4cccc(C(F)(F)F)c4)nc(C)nc3n3cnnc23)CC1 [Example 2] |  |
| 10 to 50 nM | 100 to 500 nM | Cc1nc(N[C@H](C)c2cccc(C(F)(F)F)c2)c2cc(N3CCN(C)CC3)c3nncn3c2n1 [Example 3] |  |
| 10 to 50 nM | 100 to 500 nM | Cc1nc(N[C@H](C)c2cccc(C(F)(F)F)c2)c2cc(N3CCOCC3)c3nncn3c2n1 [Example 4] |  |
|  |  | Cc1nc(N[C@H](C)c2cc(N)cc(C(F)(F)F)c2)c2c(n1)N1CCN=C1C(c1ccn(C)c(=O)c1)=C2 [Example 6] | < 50 nM |
|  |  | Cc1nc(N[C@H](C)c2cccc(C(F)F)c2F)c2c(n1)N1CCN=C1C(c1ccn(C)c(=O)c1)=C2 [Example 7] | < 50 nM |
| 10 to 50 nM |  | Cc1nc(N[C@H](C)c2cccc(C(F)F)c2F)c2cc(-c3ccn(C)c(=O)c3)n3cnnc3c2n1 [Example 9] |  |
| 10 to 50 nM |  | Cc1nc(N[C@H](C)c2cccc(C(F)(F)F)c2F)c2cc(-c3ccn(C)c(=O)c3)n3cnnc3c2n1 [Example 10] |  |
| < 10 nM | 100 to 500 nM | Cc1nc(N[C@H](C)c2cccc(C(F)F)c2F)c2c(n1)N1CCN=C1C(c1ccc(=O)[nH]c1)=C2 [Example 12] |  |
| 10 to 50 nM | < 50 nM | CC(=O)N1CC=C(C2=Cc3c(N[C@H](C)c4cccc(C(F)F)c4F)nc(C)nc3N3CCN=C23)CC1 [Example 31] |  |
| 10 to 50 nM | 100 to 500 nM | Cc1nc(N[C@H](C)c2cccc(C(F)(F)F)c2)c2c(n1)N1CCN=C1C(c1ccc(=O)n(C)c1)=C2 [Example 65] |  |
| < 10 nM | 100 to 500 nM | Cc1nc(N[C@H](C)c2cccc(C(F)(F)CO)c2)c2c(n1)N1CCN=C1C(c1ccc(=O)n(C)c1)=C2 [Example 71] |  |
|  | 100 to 500 nM | Cc1nc(N[C@H](C)c2cccc(C(F)(F)F)c2)c2c(n1)N1CCN=C1C(c1cccnc1)=C2 [Example 94] |  |
|  | 100 to 500 nM | Cc1nc(N[C@H](C)c2cccc(C(F)(F)F)c2)c2c(n1)N1CCN=C1C(c1cncc(C#N)c1)=C2 [Example 95] |  |
| < 10 nM | 100 to 500 nM | Cc1nc(N[C@H](C)c2cccc(C(F)(F)F)c2)c2c(n1)N1CCN=C1C(c1ccc(=O)n(CCO)c1)=C2 [Example 97] |  |
| < 10 nM | 100 to 500 nM | CCn1cc(C2=Cc3c(N[C@H](C)c4cccc(C(F)(F)F)c4)nc(C)nc3N3CCN=C23)ccc1=O [Example 98] |  |
| 10 to 50 nM | 100 to 500 nM | Cc1nc(N[C@H](C)c2cccc(C(F)(F)F)c2)c2c(n1)N1CCN=C1C(c1cccn(C)c1=O)=C2 [Example 99] |  |
|  | 100 to 500 nM | COCCn1cc(C2=Cc3c(N[C@H](C)c4cccc(C(F)(F)F)c4)nc(C)nc3N3CCN=C23)ccc1=O [Example 100] |  |
|  | 100 to 500 nM | Cc1nc(N[C@H](C)c2cccc(C(F)(F)F)c2)c2c(n1)N1CCN=C1C(c1ccc(=O)n(CC(F)F)c1)=C2 [Example 101] |  |
|  | 100 to 500 nM | Cc1nc(N[C@H](C)c2cccc(C(F)(F)F)c2)c2c(n1)N1CCN=C1C(c1cccc(=O)n1C)=C2 [Example 102] |  |

| IC50 [1] | IC50 [2, 3] | SMILES | IC50 ([2]; NCI-H358, 192 h) |
| --- | --- | --- | --- |
|  | 100 to 500 nM | Cc1nc(N[C@H](C)c2cccc(C(F)(F)F)c2)c2c(n1)N1CCN=C1C(c1cnc(=O)n(C)c1)=C2 [Example 103] |  |
|  | 100 to 500 nM | Cc1nc(N[C@H](C)c2cccc(C(F)(F)F)c2)c2c(n1)N1CCN=C1C(c1cn(C)c(=O)n(C)c1=O)=C2 [Example 104] |  |
|  | 100 to 500 nM | Cc1nc(N[C@H](C)c2cccc(C(F)(F)F)c2)c2c(n1)N1CCN=C1C(c1ccc(=O)n(C(C)C)c1)=C2 [Example 105] |  |
|  | 100 to 500 nM | Cc1nc(N[C@H](C)c2cccc(C(F)(F)F)c2)c2c(n1)N1CCN=C1C(c1cc(C)c(=O)n(C)c1)=C2 [Example 106] |  |
|  | 100 to 500 nM | Cc1nc(N[C@H](C)c2cccc(C(F)(F)F)c2)c2c(n1)N1CCN=C1C(c1ccn(CCO)c(=O)c1)=C2 [Example 107] |  |
|  | 50 to 100 nM | Cc1nc(N[C@H](C)c2cccc(C(F)(F)F)c2)c2c(n1)N1CCN=C1C(c1ccn(C3COC3)c(=O)c1)=C2 [Example 108] |  |
| 10 to 50 nM | 50 to 100 nM | [2H]C([2H])([2H])n1ccc(C2=Cc3c(N[C@H](C)c4cccc(C(F)(F)F)c4)nc(C)nc3N3CCN=C23)cc1=O [Example 109] |  |
|  | 100 to 500 nM | C[C@@H](Nc1nc(C2CC2)nc2c1C=C(c1ccn(C)c(=O)c1)C1=NCCN12)c1cccc(C(F)(F)F)c1 [Example 110] |  |
|  | 100 to 500 nM | C[C@@H](Nc1nc(C2CC2)nc2c1C=C(c1ccc(=O)n(C)c1)C1=NCCN12)c1cccc(C(F)(F)F)c1 [Example 111] |  |
|  | 100 to 500 nM | Cc1nc(N[C@H](C)c2cccc(C(F)(F)F)c2)c2c(n1)N1CCN=C1C(c1ccn(CF)c(=O)c1)=C2 [Example 113] |  |
|  | 100 to 500 nM | Cc1nc(N[C@H](C)c2cc(C(F)(F)F)ccn2)c2c(n1)N1CCN=C1C(c1ccn(C)c(=O)c1)=C2 [Example 117] |  |
| < 10 nM | 100 to 500 nM | Cc1nc(N[C@H](C)c2cccc(C(F)(F)CO)c2)c2c(n1)N1CCN=C1C(c1ccn(C)c(=O)c1)=C2 [Example 118] |  |
|  | 50 to 100 nM | Cc1nc(N[C@H](C)c2cccc(C(F)(F)C(C)(C)O)c2F)c2c(n1)N1CCN=C1C(c1ccc(=O)n(C)c1)=C2 [Example 119] |  |
|  | 100 to 500 nM | Cc1nc(N[C@H](C)c2cccc3c2OCC3(F)F)c2c(n1)N1CCN=C1C(c1ccc(=O)n(C)c1)=C2 [Example 120] |  |
|  | 100 to 500 nM | Cc1nc(N[C@H](C)c2cccc3c2OCC3(F)F)c2c(n1)N1CCN=C1C(c1ccn(C)c(=O)c1)=C2 [Example 121] |  |
| < 10 nM | 50 to 100 nM | Cc1nc(N[C@H](C)c2cccc(C(F)F)c2F)c2c(n1)N1CCN=C1C(C1=CCN(S(C)(=O)=O)CC1)=C2 [Example 122] |  |
| < 10 nM | 50 to 100 nM | Cc1nc(N[C@H](C)c2cccc(C(F)F)c2F)c2c(n1)N1CCN=C1C(C1=CCN(C(=O)CC#N)CC1)=C2 [Example 123] |  |
| < 10 nM | 50 to 100 nM | Cc1nc(N[C@H](C)c2cccc(C(F)F)c2F)c2c(n1)N1CCN=C1C(C1=CCN(C(=O)C3(F)CC3)CC1)=C2 [Example 124] |  |
|  | 50 to 100 nM | Cc1nc(N[C@H](C)c2cccc(C(F)F)c2F)c2c(n1)N1CCN=C1C(C1(O)CCN(C(=O)C3(F)CC3)CC1)=C2 [Example 125] |  |
